Source: ChEMBL document CHEMBL5120927, “LEGO-Lipophosphonoxins: A Novel Approach in Designing Membrane Targeting Antimicrobials” (J Med Chem, 2022)

Legend:
Type in all cases: functional
Staphylococcus aureus [1] = test: Antibacterial activity against antibiotic resistant Staphylococcus aureus 4460/A assessed as reduction in microbial growth incubated for 24 hrs by microdilution assay
Staphylococcus aureus [2] = test: Antibacterial activity against antibiotic resistant Staphylococcus aureus 4862/C assessed as reduction in microbial growth incubated for 24 hrs by microdilution assay
Staphylococcus aureus [3] = test: Antibacterial activity against antibiotic resistant Staphylococcus aureus 4679/B assessed as reduction in microbial growth incubated for 24 hrs by microdilution assay
Staphylococcus aureus [4] = test: Antibacterial activity against antibiotic resistant Staphylococcus aureus 4788/B assessed as reduction in microbial growth incubated for 24 hrs by microdilution assay
Staphylococcus aureus [5] = test: Antibacterial activity against antibiotic resistant Staphylococcus aureus 4504/A assessed as reduction in microbial growth incubated for 24 hrs by microdilution assay
Staphylococcus aureus [6] = test: Antibacterial activity against antibiotic resistant Staphylococcus aureus 78/CF assessed as reduction in microbial growth incubated for 24 hrs by microdilution assay
Staphylococcus aureus [7] = test: Antibacterial activity against antibiotic resistant Staphylococcus aureus 4880/C assessed as reduction in microbial growth incubated for 24 hrs by microdilution assay
Staphylococcus aureus [8] = test: Antibacterial activity against antibiotic resistant Staphylococcus aureus 4557/A assessed as reduction in microbial growth incubated for 24 hrs by microdilution assay
Staphylococcus aureus [9] = test: Antibacterial activity against antibiotic resistant Staphylococcus aureus 5079/C assessed as reduction in microbial growth incubated for 24 hrs by microdilution assay
Staphylococcus aureus [10] = test: Antibacterial activity against antibiotic resistant Staphylococcus aureus 4738/B assessed as reduction in microbial growth incubated for 24 hrs by microdilution assay
Staphylococcus aureus [11] = test: Antibacterial activity against antibiotic resistant Staphylococcus aureus 4740/B assessed as reduction in microbial growth incubated for 24 hrs by microdilution assay
Staphylococcus aureus [12] = test: Antibacterial activity against antibiotic resistant Staphylococcus aureus 4717/B assessed as reduction in microbial growth incubated for 24 hrs by microdilution assay
Staphylococcus aureus [13] = test: Antibacterial activity against antibiotic resistant Staphylococcus aureus 4883/C assessed as reduction in microbial growth incubated for 24 hrs by microdilution assay
Staphylococcus aureus [14] = test: Antibacterial activity against antibiotic resistant Staphylococcus aureus 4566/A assessed as reduction in microbial growth incubated for 24 hrs by microdilution assay
Staphylococcus aureus [15] = test: Antibacterial activity against antibiotic resistant Staphylococcus aureus 77/CF assessed as reduction in microbial growth incubated for 24 hrs by microdilution assay
Staphylococcus aureus [16] = test: Antibacterial activity against antibiotic resistant Staphylococcus aureus 4904/C assessed as reduction in microbial growth incubated for 24 hrs by microdilution assay
Staphylococcus aureus [17] = test: Antibacterial activity against wild type methicillin resistant Staphylococcus aureus 5017/C assessed as reduction in microbial growth incubated for 24 hrs by microdilution assay
Staphylococcus aureus [18] = test: Antibacterial activity against antibiotic resistant Staphylococcus aureus 4461/A assessed as reduction in microbial growth incubated for 24 hrs by microdilution assay
Staphylococcus aureus [19] = test: Antibacterial activity against antibiotic resistant Staphylococcus aureus 4482/A assessed as reduction in microbial growth incubated for 24 hrs by microdilution assay
Staphylococcus aureus [20] = test: Antibacterial activity against antibiotic resistant Staphylococcus aureus 4502/A assessed as reduction in microbial growth incubated for 24 hrs by microdilution assay
Staphylococcus aureus [21] = test: Antibacterial activity against wild type methicillin resistant Staphylococcus aureus 4968/C assessed as reduction in microbial growth incubated for 24 hrs by microdilution assay
Staphylococcus aureus [22] = test: Antibacterial activity against antibiotic resistant Staphylococcus aureus 4515/A assessed as reduction in microbial growth incubated for 24 hrs by microdilution assay
Staphylococcus aureus [23] = test: Antibacterial activity against antibiotic resistant Staphylococcus aureus 4463/A assessed as reduction in microbial growth incubated for 24 hrs by microdilution assay
Staphylococcus aureus [24] = test: Antibacterial activity against wild type methicillin resistant Staphylococcus aureus 4561/A assessed as reduction in microbial growth incubated for 24 hrs by microdilution assay

CC1(C)S[C@@H]2[C@H](NC(=O)Cc3ccccc3)C(=O)N2[C@H]1C(=O)O [PENICILLIN G]
MIC (Staphylococcus aureus [1]): 1 mg/L
MIC (Staphylococcus aureus [2]): 1 mg/L
MIC (Staphylococcus aureus [3]): 0.5 mg/L
MIC (Staphylococcus aureus [4]): 0.25 mg/L
MIC (Staphylococcus aureus [5]): 0.25 mg/L
MIC (Staphylococcus aureus [6]): 0.25 mg/L
MIC (Staphylococcus aureus [7]): 0.25 mg/L
MIC (Staphylococcus aureus [8]): 0.25 mg/L
MIC (Staphylococcus aureus [9]): 0.25 mg/L
MIC (Staphylococcus aureus [10]): 1 mg/L
MIC (Staphylococcus aureus [11]): 0.25 mg/L
MIC (Staphylococcus aureus [12]): 0.5 mg/L
MIC (Staphylococcus aureus [13]): 0.25 mg/L
MIC (Staphylococcus aureus [14]): 0.25 mg/L
MIC (Staphylococcus aureus [15]): 0.5 mg/L
MIC (Staphylococcus aureus [16]): 0.25 mg/L
MIC (Staphylococcus aureus [17]): > 4 mg/L
MIC (Staphylococcus aureus [18]): 1 mg/L
MIC (Staphylococcus aureus [19]): 2 mg/L
MIC (Staphylococcus aureus [20]): 0.25 mg/L
MIC (Staphylococcus aureus [21]): > 4 mg/L
MIC (Staphylococcus aureus [22]): 0.5 mg/L
MIC (Staphylococcus aureus [23]): 0.25 mg/L
MIC (Staphylococcus aureus [24]): > 2 mg/L
